Activity calls are given as the source filed them. A value given as a limit tells only on which side of the number the result lay.

In series [1] the target is Cytochrome P450 2D6 (Homo sapiens, UniProt P10635).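 Also: CYP2D6 member of a cytochrome P450 panel assay.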
In series [2] the target is Cytochrome P450 2C9 (Homo sapiens, UniProt P11712).
Series [3] concerns the target Troponin, cardiac muscle (Homo sapiens, UniProt P19429+P45379+P63316). Briefly: Fluorescence-based biochemical high throughput dose response assay for activators of the calcium sensitivity of cardiac Regulated Thin Filaments (RTF). [Related pubchem assays (depositor defined):AID493008, AID493018, AID504382, AID504383]. Type of series: protein-complex assay.
Series [4] concerns Vero. Put plainly: cells. The class given is functional. As to conditions: Chlorocebus sabaeus.
Series [5] has as its target T1, Microphthalmia-associated transcription factor (Homo sapiens, UniProt O75030).
T1 sequence (O75030 whole entry): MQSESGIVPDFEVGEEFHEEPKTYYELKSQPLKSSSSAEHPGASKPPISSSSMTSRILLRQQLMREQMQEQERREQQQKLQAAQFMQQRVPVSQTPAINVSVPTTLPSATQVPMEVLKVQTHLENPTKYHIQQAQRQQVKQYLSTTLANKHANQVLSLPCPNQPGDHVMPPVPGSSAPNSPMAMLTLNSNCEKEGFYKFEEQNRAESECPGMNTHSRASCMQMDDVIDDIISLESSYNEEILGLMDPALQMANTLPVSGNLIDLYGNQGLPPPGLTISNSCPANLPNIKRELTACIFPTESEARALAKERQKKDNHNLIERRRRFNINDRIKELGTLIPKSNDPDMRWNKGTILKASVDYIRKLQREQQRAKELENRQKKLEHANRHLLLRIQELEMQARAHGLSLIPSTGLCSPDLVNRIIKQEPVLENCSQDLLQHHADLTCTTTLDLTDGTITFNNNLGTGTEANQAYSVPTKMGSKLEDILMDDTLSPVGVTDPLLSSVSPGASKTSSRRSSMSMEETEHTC
Briefly: TRPM1 promoter luciferase signal decrease, dose response, MITF inhibitor project, cell-based, SK-MEL-5, cherry-picked, set 3 (AID 493073).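 Also: SK-MEL-5 melanoma cells with luciferase driven by the MITF target TRPM1 promoter.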 The class given is functional.

In series [6] the target is Paired box protein Pax-8 (Homo sapiens, UniProt Q06710). Put plainly: inhibitors of PAX8-driven TPO luciferase reporter, dose response, RMG-I cells, cherry-pick (AID 687027).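 Also: luciferase reporter driven by Pax8 target thyroperoxidase promoter measured by SteadyGlo luminescence.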 The class given is functional, cell-based.
Series [7] is described as follows: HepG2 cell cytotoxicity, dose response, cytotoxicity control, ATP luminescence, cherry-pick, activator set 2 (AID 1053143). Type of series: functional, cell-based.
Series [8] has as its target T2, Cytochrome P450 3A4 (Homo sapiens, UniProt P08684). Particulars: Potency.
Series [9] addresses Dual specificity tyrosine-phosphorylation-regulated kinase 1A (Rattus norvegicus, UniProt Q63470). The class given is biochemical, Homo sapiens.
Series [10] has as its target Cytochrome P450 2C19 (Homo sapiens, UniProt P33261). Put plainly: Cytochrome panel assay with activity outcomes. Panel member name: p450-cyp2c19 Compounds with AC50 equal or less than 10 uM are considered active. The class given is functional. As to conditions: read-out: AC50.
Series [11] has as its target T2, Cytochrome P450 3A4.
Series [12] addresses T3, Cytochrome P450 1A2 (Homo sapiens, UniProt P05177).
T3 sequence (P05177 whole entry): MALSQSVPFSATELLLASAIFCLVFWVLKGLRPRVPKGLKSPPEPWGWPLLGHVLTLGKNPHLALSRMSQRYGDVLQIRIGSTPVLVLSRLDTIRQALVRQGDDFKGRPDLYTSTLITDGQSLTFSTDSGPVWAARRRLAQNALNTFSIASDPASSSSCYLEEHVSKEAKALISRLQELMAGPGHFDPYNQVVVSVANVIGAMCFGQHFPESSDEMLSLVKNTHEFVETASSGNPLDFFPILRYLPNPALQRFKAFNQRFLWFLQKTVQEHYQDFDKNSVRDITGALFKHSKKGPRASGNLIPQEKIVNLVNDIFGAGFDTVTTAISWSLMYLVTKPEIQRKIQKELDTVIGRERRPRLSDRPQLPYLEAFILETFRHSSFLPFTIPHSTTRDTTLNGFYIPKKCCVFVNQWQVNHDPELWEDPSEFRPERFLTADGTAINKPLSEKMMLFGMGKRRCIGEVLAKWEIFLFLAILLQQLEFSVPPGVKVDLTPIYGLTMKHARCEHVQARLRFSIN

Series [13] deals with T4, Peroxisome proliferator-activated receptor gamma/Nuclear receptor coactivator 1 (Homo sapiens, UniProt P37231). Put plainly: TR-FRET dose response biochemical High Throughput Screening assay for agonists of the steroid receptor coactivator 1 (SRC-1) recruitment by the peroxisome proliferator-activated receptor gamma (PPAR gamma): non-selective agonists. [Related pubchem assays (depositor defined):AID1300, AID1808, AID504735, AID631]. The class given is protein assay. On the technique in general: Time-resolved FRET reads energy transfer from a long-lived donor to a nearby acceptor.

Series [14] concerns the target T5, Peroxisome proliferator-activated receptor gamma/Nuclear receptor coactivator 3 (Homo sapiens, UniProt P37231). Briefly: TR-FRET dose response biochemical High Throughput Screening assay for agonists of the steroid receptor coactivator 3 (SRC-3) recruitment by the peroxisome proliferator-activated receptor gamma (PPAR gamma): non-selective agonists. [Related pubchem assays: 1301 (Confirmation screen.), 1048 (Primary screen.)]. Type of series: functional.

Series [15] deals with T6, Peroxisome proliferator-activated receptor gamma/Nuclear receptor coactivator 2 (Homo sapiens, UniProt P37231). Briefly: TR-FRET dose response biochemical High Throughput Screening assay for agonists of the steroid receptor coactivator 2 (SRC-2) recruitment by the peroxisome proliferator-activated receptor gamma (PPAR gamma): non-selective agonists. [Related pubchem assays: 1297, 1032 ]. Type of series: functional.

Series [16] deals with T7, Calpain-2 catalytic subunit (Sus scrofa, UniProt P43367).
T7 sequence (P43367 whole entry): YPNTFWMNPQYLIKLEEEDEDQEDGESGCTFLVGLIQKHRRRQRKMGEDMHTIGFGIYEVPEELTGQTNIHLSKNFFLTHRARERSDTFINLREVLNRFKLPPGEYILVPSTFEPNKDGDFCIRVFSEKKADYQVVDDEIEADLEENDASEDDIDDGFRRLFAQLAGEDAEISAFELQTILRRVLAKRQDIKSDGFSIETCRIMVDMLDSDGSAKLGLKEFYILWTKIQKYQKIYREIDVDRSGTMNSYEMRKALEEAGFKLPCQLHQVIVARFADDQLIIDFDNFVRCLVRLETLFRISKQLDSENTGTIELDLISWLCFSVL
Briefly: pig calpain II inhibitor potency, dose response, biochemical, fluorogenic peptide substrate (AID 1420). The class given is functional.

Series [17] concerns the target FAD-linked sulfhydryl oxidase ALR (Homo sapiens, UniProt P55789). Put plainly: inhibitors of human ALR sulfhydryl oxidase, dose response, biochemical, H2O2 detection, luminescence, cherry-pick (AID 493248).
A short description of series [18]: cytotoxicity in HEK-293T cells, dose response, cytotoxicity control for BCR NF-kB inhibitor project, luminescence, B-cell screen hits (AID 489021).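 Also: HEK-293T cells carrying an NF-kB luciferase reporter; cells exposed to compound for about 14 hours before viability readout.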 The class given is functional, cell-based.
Series [19] is described as follows: Luminescence Cell-Based Dose Retest to Confirm Inhibitors of Cancer Stem Cells. [Related pubchem assays (depositor defined):AID2717, AID2721]. Type of series: functional. As to conditions: Homo sapiens.
The target of series [20] is T6, Peroxisome proliferator-activated receptor gamma/Nuclear receptor coactivator 2. Type of series: functional.
In series [21] the target is T4, Peroxisome proliferator-activated receptor gamma/Nuclear receptor coactivator 1. The class given is functional.
Series [22] concerns the target T8, RNA-binding protein pos-1 (Caenorhabditis elegans, UniProt G5EF15).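 Also: purified POS-1 fused to maltose binding protein made in E. coli; potency of compounds blocking POS-1 binding to fluorescent RNA.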
T8 sequence (G5EF15 whole entry): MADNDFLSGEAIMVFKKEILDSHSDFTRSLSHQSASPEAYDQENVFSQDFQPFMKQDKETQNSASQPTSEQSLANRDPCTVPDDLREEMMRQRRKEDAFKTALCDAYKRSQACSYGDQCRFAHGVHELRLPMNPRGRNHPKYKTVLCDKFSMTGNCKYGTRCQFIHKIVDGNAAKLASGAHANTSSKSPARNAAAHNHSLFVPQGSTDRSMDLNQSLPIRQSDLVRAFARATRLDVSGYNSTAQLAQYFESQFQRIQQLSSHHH
Briefly: inhibitors of POS-1/mex-3 RNA binding, dose response, biochemical, fluorescence polarization (AID 1964). (Fluorescence polarisation rises when a labelled molecule tumbles more slowly, as on binding a larger partner.)

For series [23], the target named is T5, Peroxisome proliferator-activated receptor gamma/Nuclear receptor coactivator 3. Type of series: functional.
For series [24], the system named is H4. Put plainly: Luminescence Cell-Based Dose Response HTS to Identify Activators of 5'UTR Stem-Loop Driven Prion Protein mRNA Translation in H4 Neuroglioblastoma Cells. [Related pubchem assays: 1829 (Project Summary), 1814 (Primary HTS)]. The class given is functional. Particulars: Homo sapiens.
For series [25], the target named is T9, Zinc finger protein mex-5 (Caenorhabditis elegans, UniProt Q9XUB2).
T9 sequence (Q9XUB2 whole entry): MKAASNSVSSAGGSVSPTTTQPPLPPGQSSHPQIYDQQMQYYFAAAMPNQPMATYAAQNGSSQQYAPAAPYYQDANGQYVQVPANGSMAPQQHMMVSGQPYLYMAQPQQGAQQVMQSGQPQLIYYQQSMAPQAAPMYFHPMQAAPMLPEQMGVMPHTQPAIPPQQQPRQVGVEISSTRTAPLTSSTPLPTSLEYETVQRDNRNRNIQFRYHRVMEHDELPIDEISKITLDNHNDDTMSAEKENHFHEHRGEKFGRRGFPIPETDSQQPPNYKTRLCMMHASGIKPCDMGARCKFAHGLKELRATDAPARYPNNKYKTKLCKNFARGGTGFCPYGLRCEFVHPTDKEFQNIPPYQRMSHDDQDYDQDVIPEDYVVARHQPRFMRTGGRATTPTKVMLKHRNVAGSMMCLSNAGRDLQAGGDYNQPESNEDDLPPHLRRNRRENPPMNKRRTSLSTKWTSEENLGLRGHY
Briefly: MEX-5/TCR-2 RNA interaction inhibitors, dose response, biochemical, C. elegans, fluorescence polarization (AID 1960).

Sequence of Cytochrome P450 2C9 (P11712 whole entry): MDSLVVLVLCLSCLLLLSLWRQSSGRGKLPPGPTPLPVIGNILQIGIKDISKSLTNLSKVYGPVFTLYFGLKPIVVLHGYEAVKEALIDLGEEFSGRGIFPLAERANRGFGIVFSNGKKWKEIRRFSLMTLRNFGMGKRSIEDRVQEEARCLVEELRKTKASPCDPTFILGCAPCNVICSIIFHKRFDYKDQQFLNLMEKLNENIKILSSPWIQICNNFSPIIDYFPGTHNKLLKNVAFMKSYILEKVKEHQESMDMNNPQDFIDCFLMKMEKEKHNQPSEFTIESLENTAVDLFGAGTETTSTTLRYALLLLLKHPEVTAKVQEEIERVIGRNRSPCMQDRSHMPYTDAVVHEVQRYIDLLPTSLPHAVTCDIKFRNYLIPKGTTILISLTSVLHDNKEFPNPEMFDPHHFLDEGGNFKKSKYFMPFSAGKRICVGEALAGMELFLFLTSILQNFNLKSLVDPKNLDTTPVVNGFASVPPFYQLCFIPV
T6 sequence (P37231 whole entry): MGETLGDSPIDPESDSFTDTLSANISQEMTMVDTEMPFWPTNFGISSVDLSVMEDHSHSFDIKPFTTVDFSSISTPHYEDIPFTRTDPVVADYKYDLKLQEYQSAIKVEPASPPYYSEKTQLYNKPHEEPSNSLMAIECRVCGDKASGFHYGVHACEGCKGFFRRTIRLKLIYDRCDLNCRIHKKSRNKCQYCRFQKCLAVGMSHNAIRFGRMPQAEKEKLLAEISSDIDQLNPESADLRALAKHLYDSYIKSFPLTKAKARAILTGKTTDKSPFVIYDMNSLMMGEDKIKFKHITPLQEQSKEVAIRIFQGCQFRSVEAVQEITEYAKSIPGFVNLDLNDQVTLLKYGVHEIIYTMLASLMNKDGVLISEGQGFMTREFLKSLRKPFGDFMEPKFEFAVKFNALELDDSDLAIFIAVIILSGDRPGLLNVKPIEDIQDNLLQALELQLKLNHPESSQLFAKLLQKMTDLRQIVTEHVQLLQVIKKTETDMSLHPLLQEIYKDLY
T6 sequence (Q15596 whole entry, further chain): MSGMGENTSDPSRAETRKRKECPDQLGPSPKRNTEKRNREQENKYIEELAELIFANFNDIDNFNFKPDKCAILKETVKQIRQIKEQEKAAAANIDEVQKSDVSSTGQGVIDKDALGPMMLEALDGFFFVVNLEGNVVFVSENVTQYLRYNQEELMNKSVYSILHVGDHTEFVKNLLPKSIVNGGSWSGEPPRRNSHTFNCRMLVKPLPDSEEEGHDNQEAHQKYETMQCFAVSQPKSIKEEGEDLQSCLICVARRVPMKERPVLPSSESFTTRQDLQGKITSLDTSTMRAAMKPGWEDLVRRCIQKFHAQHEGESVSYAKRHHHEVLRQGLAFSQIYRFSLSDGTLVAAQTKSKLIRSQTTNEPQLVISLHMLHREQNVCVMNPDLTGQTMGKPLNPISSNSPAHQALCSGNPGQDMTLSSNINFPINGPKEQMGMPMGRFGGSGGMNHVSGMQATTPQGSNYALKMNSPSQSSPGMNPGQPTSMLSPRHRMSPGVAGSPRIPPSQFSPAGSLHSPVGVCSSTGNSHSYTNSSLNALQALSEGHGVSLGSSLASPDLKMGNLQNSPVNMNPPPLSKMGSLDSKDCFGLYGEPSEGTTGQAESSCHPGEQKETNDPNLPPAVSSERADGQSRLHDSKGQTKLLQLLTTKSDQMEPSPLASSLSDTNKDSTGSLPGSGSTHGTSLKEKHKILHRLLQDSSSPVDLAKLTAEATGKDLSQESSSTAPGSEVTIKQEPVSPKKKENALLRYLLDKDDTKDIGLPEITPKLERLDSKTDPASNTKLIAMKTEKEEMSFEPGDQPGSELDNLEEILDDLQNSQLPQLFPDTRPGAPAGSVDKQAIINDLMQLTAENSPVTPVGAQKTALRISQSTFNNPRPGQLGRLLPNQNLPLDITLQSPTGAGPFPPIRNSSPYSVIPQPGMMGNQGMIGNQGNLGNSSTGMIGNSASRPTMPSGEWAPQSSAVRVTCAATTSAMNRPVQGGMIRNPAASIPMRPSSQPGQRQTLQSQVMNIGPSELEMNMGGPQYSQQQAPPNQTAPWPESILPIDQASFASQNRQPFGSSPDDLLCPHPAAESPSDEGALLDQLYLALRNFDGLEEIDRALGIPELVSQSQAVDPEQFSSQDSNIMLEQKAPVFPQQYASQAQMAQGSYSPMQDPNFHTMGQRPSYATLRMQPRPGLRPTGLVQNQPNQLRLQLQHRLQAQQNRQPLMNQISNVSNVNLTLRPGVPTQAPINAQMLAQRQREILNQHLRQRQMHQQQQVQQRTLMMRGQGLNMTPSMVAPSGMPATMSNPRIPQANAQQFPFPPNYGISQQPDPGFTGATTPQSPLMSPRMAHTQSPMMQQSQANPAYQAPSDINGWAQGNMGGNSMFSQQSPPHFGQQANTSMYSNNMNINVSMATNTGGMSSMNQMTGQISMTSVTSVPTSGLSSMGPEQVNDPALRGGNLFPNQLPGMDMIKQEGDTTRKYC
T5 sequence (P37231 whole entry): as the sequence (P37231 whole entry) above
T5 sequence (Q9Y6Q9 whole entry, further chain): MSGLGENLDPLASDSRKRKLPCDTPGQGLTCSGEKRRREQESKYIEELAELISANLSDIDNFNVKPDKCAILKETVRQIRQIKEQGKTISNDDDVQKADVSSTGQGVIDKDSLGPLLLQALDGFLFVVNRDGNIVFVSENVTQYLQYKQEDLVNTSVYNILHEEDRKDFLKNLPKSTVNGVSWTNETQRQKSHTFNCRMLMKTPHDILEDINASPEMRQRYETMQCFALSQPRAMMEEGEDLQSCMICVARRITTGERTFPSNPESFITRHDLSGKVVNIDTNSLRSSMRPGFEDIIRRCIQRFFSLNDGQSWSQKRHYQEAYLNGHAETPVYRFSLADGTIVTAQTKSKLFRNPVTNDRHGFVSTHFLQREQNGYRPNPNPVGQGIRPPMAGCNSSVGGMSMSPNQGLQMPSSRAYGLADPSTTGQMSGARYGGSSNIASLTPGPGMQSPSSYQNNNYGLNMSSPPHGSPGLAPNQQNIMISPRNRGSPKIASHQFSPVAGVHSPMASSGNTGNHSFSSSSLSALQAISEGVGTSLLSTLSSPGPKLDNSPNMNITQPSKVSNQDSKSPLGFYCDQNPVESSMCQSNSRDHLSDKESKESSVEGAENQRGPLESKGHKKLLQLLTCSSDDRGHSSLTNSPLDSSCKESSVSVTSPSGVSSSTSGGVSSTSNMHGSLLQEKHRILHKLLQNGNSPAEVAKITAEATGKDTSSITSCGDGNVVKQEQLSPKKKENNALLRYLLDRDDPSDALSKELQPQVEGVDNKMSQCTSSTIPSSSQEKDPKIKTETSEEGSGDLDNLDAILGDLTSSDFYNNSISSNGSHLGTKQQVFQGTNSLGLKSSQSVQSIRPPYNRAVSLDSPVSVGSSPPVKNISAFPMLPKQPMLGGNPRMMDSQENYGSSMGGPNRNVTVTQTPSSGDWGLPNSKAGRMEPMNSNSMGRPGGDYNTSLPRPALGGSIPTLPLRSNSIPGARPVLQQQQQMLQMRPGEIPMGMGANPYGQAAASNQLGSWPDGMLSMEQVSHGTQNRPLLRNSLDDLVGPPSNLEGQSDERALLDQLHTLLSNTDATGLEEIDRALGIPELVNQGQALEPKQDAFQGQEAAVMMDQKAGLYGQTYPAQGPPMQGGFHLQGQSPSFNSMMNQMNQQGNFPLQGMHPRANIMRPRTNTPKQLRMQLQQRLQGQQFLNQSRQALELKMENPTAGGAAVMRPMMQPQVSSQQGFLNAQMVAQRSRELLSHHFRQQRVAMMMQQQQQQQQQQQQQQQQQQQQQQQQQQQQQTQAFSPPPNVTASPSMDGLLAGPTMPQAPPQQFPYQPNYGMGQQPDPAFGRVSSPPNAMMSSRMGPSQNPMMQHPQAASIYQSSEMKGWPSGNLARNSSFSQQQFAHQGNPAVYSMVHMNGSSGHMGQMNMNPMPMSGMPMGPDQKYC
T2 sequence (P08684 whole entry): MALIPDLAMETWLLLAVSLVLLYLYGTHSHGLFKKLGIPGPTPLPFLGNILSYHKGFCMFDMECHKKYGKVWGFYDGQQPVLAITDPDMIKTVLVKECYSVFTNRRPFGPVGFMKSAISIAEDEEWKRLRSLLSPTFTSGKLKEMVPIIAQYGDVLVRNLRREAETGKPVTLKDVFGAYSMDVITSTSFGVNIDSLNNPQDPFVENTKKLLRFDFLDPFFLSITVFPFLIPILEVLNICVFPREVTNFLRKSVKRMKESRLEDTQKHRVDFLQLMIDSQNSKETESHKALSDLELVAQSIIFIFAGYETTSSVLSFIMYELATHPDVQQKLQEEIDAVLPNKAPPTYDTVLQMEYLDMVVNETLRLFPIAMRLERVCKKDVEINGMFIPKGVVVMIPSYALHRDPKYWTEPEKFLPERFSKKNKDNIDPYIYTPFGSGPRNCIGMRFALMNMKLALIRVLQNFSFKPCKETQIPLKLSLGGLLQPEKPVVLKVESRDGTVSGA

As for `CCCCN1CCC(CCC(=O)c2cc(Cl)c(N)cc2OC)CC1`, the AC50 is 12.6 µM (inconclusive) in series [1] and “inconclusive” in series [2].

Take `CN(Cc1ccccc1)C(=O)c1[nH]cnc1C(=O)NCc1ccccc1`: the EC50 in [3] was > 71.6 µM (inactive).

Turning to `COc1ccc(/C=C2/SC(=S)N(CCCC(=O)N3CCN(C)CC3)C2=O)cc1`, in series [4], the CC50 is > 25 µM (active).

Regarding `COc1cc(/C=C/C(=O)N2CCC=CC2=O)cc(OC)c1OC` [PIPLARTINE], the concentration at half-maximal activity (AC50) in [5] was 7.4 µM (active); in series [6], 2.69 µM (active); in [7], 17.4 µM (active); in [8] it was 0.0501 µM (inconclusive).

`CCO/C(=C/c1sc2ccc(OC)cc2[n+]1CCCS(=O)(=O)[O-])CC`: in [9], the AC50 is 9.02 µM (active).

On to `CN(CCCNC(=O)C1CCN(S(=O)(=O)c2cccc3nsnc23)CC1)Cc1ccccc1`, for which the AC50 was 39.8 µM (inconclusive) in [10], 3.16 µM (inconclusive) in series [11] and “inconclusive” in series [2].

Take `CCCN(CCC)CCc1c[nH]c2ccc(C(N)=O)cc12`: the AC50 in series [12] was 15.8 µM (inconclusive); in [2], “inconclusive”.

For `Cn1c(=O)cc(SCC(=O)Nc2cccnc2)c2ccccc21`, the EC50 was > 79.4 µM (inactive) in [13], > 79.4 µM (not active) in series [14] and > 79.4 µM (not active) in [15].

With `Cc1nc(NC2CCCCC2)c2nc(-c3ccccc3)n(CCN3CCCC3)c2n1`, the AC50 in [8] is 25.1 µM (inconclusive).

Take `O=C(CSc1nc2cc(Br)c[nH]c-2n1)c1cccc([N+](=O)[O-])c1`: the EC50 in [3] is > 71.5 µM (inactive).

Turning to `COc1cc(/C=C2/SC(=O)NC2=O)ccc1Oc1ccc([N+](=O)[O-])cc1[N+](=O)[O-]`, the IC50 in [16] is on record as 7.36 µM (not active). Also, the AC50 in series [17] was 0.156 µM (active); in series [9] it was 0.992 µM (active).

On to `CCn1c(=O)cc(SCC(=O)N2CCN(C)CC2)c2ccccc21`, for which the EC50 in [13] was > 79.4 µM (inactive); in series [14], > 79.4 µM (not active); in series [15], > 79.4 µM (not active). Moreover, the IC50 in [18] is > 80 µM (inactive).

Take `S=C(NC1CCCCC1)NC1CCCCC1`: the AC50 in series [8] was 25.1 µM (inconclusive).

Turning to `Cc1ccc(C)c(OCC(=O)OCc2csc(CC(=O)Nc3ccccc3C)n2)c1`, the CC50 in series [4] was > 25 µM (active).

Consider `O=C(NCc1ccco1)c1nc(O)c2nnn(Cc3ccccc3Cl)c2n1`, for which the AC50 is 2.4 µM (active) in series [19] and 14.4 µM (active) in series [5]. Besides, the CC50 in series [4] is 18.9 µM (active).

Regarding `NC(=O)CNCCC(c1ccccc1)c1ccccc1`, in [8], the half-maximal activity concentration (AC50) was 15.8 µM (inconclusive).

Consider `CC(=O)N1N=C(c2ccc(Br)cc2)CC1c1cn(C)c2ccccc12` (stereo not given), for which the EC50 is 18.5 µM (inactive) in series [13], > 79.4 µM (not active) in series [14] and 18.3 µM (not active) in series [15].

As to `CCOc1ccc2ccccc2c1CNCCN1CCOCC1`, in series [3], the EC50 was > 71.5 µM (inactive).

`Nc1ccccc1-c1nnc(S)s1`: the values for the EC50 in [13], in series [14] and in [15] were 14.9 µM (inactive), > 79.4 µM (not active) and 15.6 µM (not active), respectively.

As to `O=C(Cc1nc2ccccc2nc1O)c1ccccc1`, the EC50 in series [20] is > 79.4 µM (not active); in [21], > 79.4 µM (not active); in series [22], 42.5 µM (inconclusive); in series [23] it was > 79.4 µM (not active); in series [24] it was 0.419 µM (active); in series [25], > 300 µM (inconclusive).

The term AC50 denotes the midpoint of the concentration-response curve, whichever way the signal moves. For orientation: EC50 means the midpoint of the concentration-response curve. In general, CC50 refers to the concentration at which the toxic effect on the cells reaches its halfway point. As a reminder, the IC50 is the concentration needed to halve the response being measured.

(Values after ChEMBL document CHEMBL1201862, “PubChem BioAssay data set” (2004).)
